Where “and” joins values, the source holds several entries; their conditions need not be identical. Equal values may be shown once.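 Compound exposure: 48 hours, 5 concentrations, 96-well plates. GI50 is the concentration that inhibits growth by half. TGI: total growth inhibition.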

Test systems include CCRF-CEM leukemia; DMS 114 small cell lung; HT29 colon; SF-295 CNS; U251 CNS; RXF 393 renal; SK-MEL-2 melanoma; DMS 273 small cell lung; OVCAR-3 ovarian; MDA-MB-435.
Assay in all cases: NCI-60 cell line screen, 48 h

As for `C=CCN=C1NC(=O)C(CC(=O)Nc2cccc(Cl)c2)S1` (centres undefined), the TGI in the experiment with CCRF-CEM leukemia, in the experiment on DMS 114 small cell lung, with HT29 colon, in the experiment on SF-295 CNS, in the experiment on U251 CNS and in the experiment on RXF 393 renal was above 100 µM each time. In addition, the TGI in the experiment with SK-MEL-2 melanoma, with DMS 273 small cell lung and with OVCAR-3 ovarian was above 100 µM throughout.
As for `OCC1CC2C=CCC(C2)C1` (centres undefined), the TGI in the experiment on CCRF-CEM leukemia, in the experiment with DMS 114 small cell lung, in the experiment on HT29 colon, in the experiment with SF-295 CNS, in the experiment on U251 CNS and with RXF 393 renal was above 100 µM throughout. In addition, the TGI in the experiment on SK-MEL-2 melanoma, with DMS 273 small cell lung and in the experiment with OVCAR-3 ovarian was above 100 µM throughout.
With `O=C(N/C(=C\c1cccc([N+](=O)[O-])c1)c1nc2c3c(ccc2[nH]1)C(=O)c1ccccc1C3=O)c1ccccc1`, the TGI with DMS 114 small cell lung, in the experiment with HT29 colon, with U251 CNS, in the experiment on SK-MEL-2 melanoma and in the experiment with OVCAR-3 ovarian was above 100 µM each time.
Consider `CCCC[C@H](CCc1ccccc1)N(C(=O)OC)N1CCC[C@H]1COC`, for which the TGI with CCRF-CEM leukemia came out at 31.3 µM; in the experiment with DMS 114 small cell lung, 30.2 µM; with HT29 colon, 29.4 µM; with SF-295 CNS, 33.5 µM; in the experiment on U251 CNS it was 29.1 µM; with RXF 393 renal, 32.9 µM. Further, the TGI came to 34.1 µM in the experiment on SK-MEL-2 melanoma, 35.6 µM in the experiment on DMS 273 small cell lung and 32.3 µM in the experiment with OVCAR-3 ovarian.
For `CCCC(=O)Oc1ccc(/C=N/NC(N)=S)nc1`, the TGI in the experiment with CCRF-CEM leukemia, in the experiment on DMS 114 small cell lung, in the experiment on HT29 colon, with SF-295 CNS, with U251 CNS and in the experiment on RXF 393 renal was above 100 µM throughout. Also, the TGI in the experiment with SK-MEL-2 melanoma, in the experiment with DMS 273 small cell lung and in the experiment on OVCAR-3 ovarian was above 100 µM in each case.
Take `CSc1ccc(Cc2cc(C(C)(C)C)cc(C(C)(C)C)c2O)cc1`: the TGI was 40 µM with CCRF-CEM leukemia; 25.7 µM in the experiment with DMS 114 small cell lung; 27.5 µM in the experiment on HT29 colon; 31.6 µM in the experiment with SF-295 CNS; 28.6 µM in the experiment on U251 CNS; 26.3 µM in the experiment on RXF 393 renal. Moreover, the TGI with SK-MEL-2 melanoma is 16.3 µM; in the experiment on DMS 273 small cell lung it was 26.7 µM.
Take `CCCCSC1CCSc2c1ccc1ccccc21` (centres undefined): the TGI in the experiment on DMS 114 small cell lung, in the experiment on HT29 colon, with SF-295 CNS, in the experiment on U251 CNS, in the experiment on RXF 393 renal and in the experiment on SK-MEL-2 melanoma was above 100 µM each time.
With `Nc1ccc(C(=O)CC2(O)C(=O)Nc3ccccc32)cc1` (centres undefined), the TGI in the experiment with DMS 114 small cell lung, in the experiment with HT29 colon, with SF-295 CNS, in the experiment with RXF 393 renal, in the experiment with SK-MEL-2 melanoma and with DMS 273 small cell lung was above 100 µM throughout. Moreover, the TGI in the experiment on OVCAR-3 ovarian is above 100 µM.
Take `Clc1ccc(-c2nnc(-c3nn(-c4ccccc4)c4nc5ccccc5nc34)o2)cc1`: the TGI in the experiment on CCRF-CEM leukemia is 80.8 µM; in the experiment with DMS 114 small cell lung, above 100 µM; in the experiment with HT29 colon, above 100 µM; in the experiment with SF-295 CNS it was above 100 µM; in the experiment with U251 CNS it was above 100 µM; in the experiment on RXF 393 renal it was above 100 µM. Also, the TGI in the experiment on SK-MEL-2 melanoma, in the experiment on DMS 273 small cell lung and with OVCAR-3 ovarian was above 100 µM throughout.
For the molecule `CC1CCCc2c1n[nH]c2CC1CC(=O)NC(=O)C1` (centres undefined), the TGI in the experiment with CCRF-CEM leukemia, in the experiment with DMS 114 small cell lung, in the experiment on HT29 colon, in the experiment on SF-295 CNS, with U251 CNS and in the experiment on RXF 393 renal was above 100 µM in each case. The TGI with DMS 273 small cell lung and with OVCAR-3 ovarian was above 100 µM in each case.
With `COC(=O)CCCCCOS(=O)(=O)c1ccc(C)cc1`, the TGI in the experiment on CCRF-CEM leukemia, in the experiment with DMS 114 small cell lung, in the experiment with HT29 colon, in the experiment with SF-295 CNS, in the experiment with U251 CNS and in the experiment with RXF 393 renal was above 100 µM throughout. Also, the TGI with SK-MEL-2 melanoma, in the experiment with DMS 273 small cell lung and with OVCAR-3 ovarian was above 100 µM in each case.
Turning to `COc1cccc(/C=C2\N=C(Cl)OC2=O)c1O`, the TGI in the experiment with CCRF-CEM leukemia, in the experiment with DMS 114 small cell lung, in the experiment with HT29 colon, in the experiment on SF-295 CNS, in the experiment on U251 CNS and with RXF 393 renal was above 100 µM throughout. In addition, the TGI in the experiment with SK-MEL-2 melanoma, with DMS 273 small cell lung and with OVCAR-3 ovarian was above 100 µM each time.
On to `C=C1C2CC(OC(C)=O)C3(C)C(c4ccoc4)OC(=O)[C@@H](O)[C@]13OC1C[C@H](OC(C)=O)C(C)(C)[C@H](C(O)C(=O)OC)[C@]12C` (some centres undefined), for which the TGI in the experiment on CCRF-CEM leukemia, in the experiment with DMS 114 small cell lung, in the experiment on HT29 colon, in the experiment on SF-295 CNS, with U251 CNS and in the experiment with SK-MEL-2 melanoma was above 100 µM in each case. In addition, the TGI in the experiment with DMS 273 small cell lung and in the experiment on OVCAR-3 ovarian was above 100 µM throughout.
For the molecule `CC1=NC(C)=C(/C(C)=N/NC(=O)c2ccccc2O)C(C)/C1=C(/C)NNC(=O)c1ccccc1O` (centres undefined), the TGI in the experiment on DMS 114 small cell lung was 44.1 µM; with HT29 colon, above 100 µM; with U251 CNS, above 100 µM; with RXF 393 renal, 26.2 µM; in the experiment with OVCAR-3 ovarian it was 66.7 µM.
Regarding `CC(=O)O[C@H]1CC[C@@]2(C)C(=CC[C@H]3C(CC#N)[C@@](C)(C#N)CCC32)C1` (some centres undefined), the TGI in the experiment with CCRF-CEM leukemia, in the experiment with DMS 114 small cell lung, in the experiment with HT29 colon, in the experiment with SF-295 CNS, in the experiment with U251 CNS and in the experiment with RXF 393 renal was above 100 µM throughout. Besides, the TGI with SK-MEL-2 melanoma, in the experiment on DMS 273 small cell lung and in the experiment on OVCAR-3 ovarian was above 100 µM each time.
As for `CSc1nc2c(nc(N)n2C2OC(CO)C(O)C(O)C2O)c(=O)[nH]1` (centres undefined), the TGI in the experiment with CCRF-CEM leukemia, with DMS 114 small cell lung, in the experiment on HT29 colon, with SF-295 CNS, in the experiment with U251 CNS and with RXF 393 renal was above 100 µM in each case. Further, the TGI in the experiment with OVCAR-3 ovarian is above 100 µM.
Regarding `COc1nc(NC2OC(COC(C)=O)C(OC(C)=O)C(OC(C)=O)C2OC(C)=O)c(N=C(C)C(C)=O)c(=O)n1C` (centres undefined), the TGI with CCRF-CEM leukemia, with DMS 114 small cell lung, in the experiment with HT29 colon, in the experiment on SF-295 CNS, in the experiment on U251 CNS and in the experiment with RXF 393 renal was above 100 µM each time. The TGI in the experiment with SK-MEL-2 melanoma and in the experiment on OVCAR-3 ovarian was above 100 µM each time.
On to `CC(=O)OC1CC2C(C)(C)C(=O)C=C[C@]2(C)C2CCC3(C)C(c4ccoc4)C(=O)C4OC43[C@]12C` (some centres undefined), for which the TGI with CCRF-CEM leukemia came out at 58.3 µM; with DMS 114 small cell lung, 33.3 µM; in the experiment with HT29 colon, 32.1 µM; in the experiment with SF-295 CNS, 37.7 µM; with U251 CNS, 41.6 µM; in the experiment on SK-MEL-2 melanoma, 31.9 µM. Also, the results for the TGI in the experiment on DMS 273 small cell lung and in the experiment with OVCAR-3 ovarian were 75.6 µM and 34.4 µM, respectively.
As to `C/C(=N\NC(=O)c1ccccc1O)c1c(O)cc(C)oc1=O`, the TGI with DMS 114 small cell lung, in the experiment on HT29 colon, in the experiment with SF-295 CNS, in the experiment on U251 CNS, in the experiment with RXF 393 renal and with SK-MEL-2 melanoma was above 100 µM each time. Also, the TGI in the experiment with OVCAR-3 ovarian was above 100 µM.
With `Oc1cccc2cccnc12`, the GI50 with MDA-MB-435 was 13.3 µM and 21.5 µM and 5.94 µM; in the experiment with HT29 colon, 3.53 µM and 13.8 µM and 4.64 µM; in the experiment on U251 CNS it was 3.32 µM and 23.8 µM and 5.14 µM; with RXF 393 renal, 13.4 µM and 69.6 µM and 14.6 µM; with SK-MEL-2 melanoma, > 20.7 µM and 8.34 µM. Besides, the TGI in the experiment with MDA-MB-435 is above 100 µM; in the experiment on HT29 colon, above 100 µM; with SF-295 CNS it was above 100 µM; in the experiment with U251 CNS it was above 100 µM; in the experiment on RXF 393 renal, above 100 µM; with SK-MEL-2 melanoma, above 74.5 µM. Further, the TGI with DMS 273 small cell lung came to 7.98 µM.
Take `Cn1nc(-c2ccccc2)c2c(/C=C/c3ccc(F)cc3)onc2c1=O`: the TGI in the experiment with CCRF-CEM leukemia is above 100 µM; with HT29 colon, above 100 µM; with U251 CNS it was above 100 µM; with RXF 393 renal, 70.7 µM; in the experiment on DMS 273 small cell lung, above 100 µM.
Consider `CCCCCCCCCCNC(=S)OC`, for which the TGI in the experiment on CCRF-CEM leukemia was above 100 µM; with DMS 114 small cell lung, 44.9 µM; in the experiment with HT29 colon, above 100 µM; with SF-295 CNS, above 100 µM; in the experiment on U251 CNS, above 100 µM; in the experiment on RXF 393 renal, above 100 µM. Moreover, the TGI in the experiment on DMS 273 small cell lung was above 100 µM.
Regarding `O=C1NN(C(=O)c2ccccc2)C(c2ccc(Cl)c(Cl)c2)=C/C1=C\c1ccccc1[N+](=O)[O-]`, the GI50 is 1.91 µM with CCRF-CEM leukemia; above 6.75 µM in the experiment with MDA-MB-435; 2.3 µM in the experiment with HT29 colon; 1.44 µM in the experiment with SF-295 CNS; 0.897 µM in the experiment with U251 CNS; 1.67 µM in the experiment with RXF 393 renal. The GI50 is 3.11 µM with SK-MEL-2 melanoma and 2.4 µM in the experiment with OVCAR-3 ovarian. In addition, the TGI in the experiment on CCRF-CEM leukemia was above 6.75 µM; with MDA-MB-435, above 6.75 µM; in the experiment on HT29 colon, above 6.75 µM; with SF-295 CNS it was 4.16 µM; in the experiment on U251 CNS it was above 6.75 µM; with RXF 393 renal, 5.35 µM. For the same molecule, the TGI in the experiment with SK-MEL-2 melanoma and in the experiment with OVCAR-3 ovarian was above 6.75 µM throughout.

For the origin of these results see PubChem BioAssay (NCI).
